Patent US20180042231A1, “Systems and Methods for the Continuous On-Site Production of Peroxycarboxcylic Acid Solutions” (Eltron Water Systems, LLC, priority 2016, published 2018)

Tests used:
[1] = Degradation (self-decay) of PAA solution over time; type: physicochemical; conditions: for degradation rate of non-equilibrium PAA: 2% concentration
Description: Sometimes it is desirable to remove the very strong odor of the final equilibrium PAA product, such as when it is used indoors. Anti-microbial efficacy is roughly the same whether the PAA is in an acidic or alkaline state. The two most significant differences are: 1) alkaline PAA has no odor and 2) alkaline PAA self-degrades very rapidly when the pH is above 8, usually at 5-10% per hour. In situations where the PAA is to be used within minutes or hours of when it is made alkaline, the addition of an alkali earth metal in solution with water can be used alone or with more water to both dilute the PAA and raise its pH to any desired level, eliminating its odor. At this point other materials may be added to the alkaline PAA such as detergents, fragrance additives and even foaming agents.
The system of the present invention is designed such that the PAA is produced in a unique manner which differs substantially from prior art processes, the end product being inherently not at equilibrium. At 2% concentration, it degrades at about 6% per day if the pH is below 7 (acidic) and at 5-10% per hour when the pH is above 7. Use of a stabilizer will not halt that decay. Accordingly, the system herein disclosed is designed to generate PAA to be used within minutes or hours of when it is made, thereby eliminating the need for a stabilizer used by every other PAA manufacturer in the world.

[2] = Dissolution of triacetin in water; type: physicochemical; conditions: room temperature
Description: A second method involves pre-dissolving traicetin in water outside the generator using time and mixing to eliminate the strands and globules. This approach requires a significant amount of extra water to be supplied to the generator, since at room temperature, the maximum amount of triacetin that can be dissolved is only approximately 4%.

Row | Compound | degradation rate of non-equilibrium PAA ([1]; pH above 7) | degradation rate of non-equilibrium PAA ([1]; pH below 7 (acidic)) | self-degradation rate of alkaline PAA ([1]; equilibrium PAA made alkaline, pH above 8) | maximum amount of triacetin that can be dissolved in water [2]
1 | CC(=O)OO [PAA, peracetic acid] | 5-10 % per hour | about 6 % per day | 5-10 % per hour | 
2 | CC(=O)OCC(COC(C)=O)OC(C)=O [triacetin, 1,2,3-triacetoxypropane] |  |  |  | approximately 4%
